Format in all cases: binding
For one assay, the target named is T1, human OTR (Homo sapiens, UniProt P30559).
T1 construct: expressed in transfected cells
T1 sequence (P30559 1-389): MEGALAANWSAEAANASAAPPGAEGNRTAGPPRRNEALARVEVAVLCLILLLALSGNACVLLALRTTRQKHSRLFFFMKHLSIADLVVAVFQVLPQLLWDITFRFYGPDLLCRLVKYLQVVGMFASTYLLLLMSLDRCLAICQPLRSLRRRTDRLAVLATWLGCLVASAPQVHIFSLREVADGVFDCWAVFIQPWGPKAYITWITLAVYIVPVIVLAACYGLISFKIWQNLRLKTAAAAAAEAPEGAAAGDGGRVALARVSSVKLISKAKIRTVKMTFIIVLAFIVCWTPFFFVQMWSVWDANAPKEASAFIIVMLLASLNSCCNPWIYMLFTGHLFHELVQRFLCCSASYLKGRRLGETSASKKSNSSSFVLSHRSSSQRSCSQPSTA
As to the kind of experiment: Scintillation proximity assay, displacement of [3H]OT from human OTR. Particulars: for Ki: human OTR. The text has this: (§1) OT analogues were screened in scintillation proximity assays that displace [^3H]OT or [^3H]AVP from the corresponding receptors. […]
(§2) All RCYs reported are decay corrected to the time of 18F delivery. The protocols for performing
(§3) receptor radioligand binding and potency studies on transfected cells to determine affinity
(In a scintillation proximity assay essentially only radioactivity close to the scintillant gives light.)

The next assay concerns the target T2, human V1a receptors (Homo sapiens, UniProt P37288).
T2 construct: expressed in transfected cells
The assay is described as follows: Scintillation proximity assay, displacement of [3H]AVP from human V1a receptor.
Text: as §1, §2, §3

The target in assay [1] is T3, human vasopressin receptor V2 (Homo sapiens, UniProt P30518).
T3 construct: expressed in transfected cells
The assay is described as follows: Scintillation proximity assay, displacement of [3H]AVP from human V2 receptor.
Text: as §1, §2, §3

As usually defined, the Ki is the dissociation constant of the complex between target and ligand, obtained from inhibition or displacement. A higher Ki goes with a looser hold on the target.

Where a SMILES comes first, the peptide text is derived from it. Bridges are numbered along the chain shown (N, C = ends). [ ]: non-standard residue; d: D form. Mpa = O=C(O)CCS

T2 sequence (P37288 whole entry): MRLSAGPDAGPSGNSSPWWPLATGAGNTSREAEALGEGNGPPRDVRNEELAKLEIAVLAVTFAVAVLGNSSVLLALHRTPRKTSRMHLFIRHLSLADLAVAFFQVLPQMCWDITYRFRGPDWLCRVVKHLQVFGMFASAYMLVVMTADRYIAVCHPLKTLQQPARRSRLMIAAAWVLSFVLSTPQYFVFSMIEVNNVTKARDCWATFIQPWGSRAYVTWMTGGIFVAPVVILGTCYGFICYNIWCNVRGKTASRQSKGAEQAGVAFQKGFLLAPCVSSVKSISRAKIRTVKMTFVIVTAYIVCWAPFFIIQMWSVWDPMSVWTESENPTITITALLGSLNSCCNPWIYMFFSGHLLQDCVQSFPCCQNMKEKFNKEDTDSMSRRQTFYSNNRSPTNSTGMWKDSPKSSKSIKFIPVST
T3 sequence (P30518 whole entry): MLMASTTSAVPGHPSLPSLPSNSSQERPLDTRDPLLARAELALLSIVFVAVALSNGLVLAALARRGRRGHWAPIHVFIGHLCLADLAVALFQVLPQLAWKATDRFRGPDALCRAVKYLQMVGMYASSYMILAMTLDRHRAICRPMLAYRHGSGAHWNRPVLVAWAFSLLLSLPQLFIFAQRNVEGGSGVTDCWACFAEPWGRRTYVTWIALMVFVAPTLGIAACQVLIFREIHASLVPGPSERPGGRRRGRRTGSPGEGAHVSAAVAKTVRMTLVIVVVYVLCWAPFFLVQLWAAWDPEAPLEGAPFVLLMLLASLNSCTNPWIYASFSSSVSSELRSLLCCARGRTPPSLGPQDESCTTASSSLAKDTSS

Take `CC[C@H](C)[C@H](NC(=O)[C@H](Cc1ccc(O)cc1)NC(=O)CCS)C(=O)N[C@@H](CCC(N)=O)C(=O)N[C@@H](CC(N)=O)C(=O)N[C@@H](CS)C(=O)N1CCC[C@H]1C(=O)N[C@@H](CC(C)C)C(=O)NCC(N)=O` [dOToc]: the results for the Ki at human OTR and on human V1a receptors were 1.2 ± 0.9 nM and 362 ± 124 nM, respectively.
With `CC[C@H](C)[C@@H]1NC(=O)[C@H](Cc2ccc(O)cc2)NC(=O)CCSSC[C@@H](C(=O)N2CCC[C@H]2C(=O)N[C@@H](CCCCN)C(=O)NCC(N)=O)NC(=O)[C@H](CC(N)=O)NC(=O)[C@H](CCC(N)=O)NC1=O` [dLVTc, reference compound] ([Mpa]YIQNCPKG-NH2; disulfide 1-6), the values for the Ki (in assay [1]; at human OTR; at human V1a receptors) were 4840 ± 1670 nM, 3.4 ± 1 nM and 24 ± 5 nM, respectively. Besides, the “selectivity towards OTR” value at human OTR (OTR over V1a, from Ki values of Table 1) is on record as around 7 fold.
Turning to `CC[C@H](C)[C@@H]1NC(=O)[C@H](Cc2ccc(O)cc2)NC(=O)CCSSC[C@@H](C(=O)N2CCC[C@H]2C(=O)N[C@@H](CC(C)C)C(=O)NCC(N)=O)NC(=O)[C@H](CC(N)=O)NC(=O)[C@H](CCC(N)=O)NC1=O` [dOTc], the Ki on human OTR came to 1.6 ± 1.3 nM; on human V1a receptors it was 388 ± 157 nM.
As for `CC[C@H](C)[C@H](NC(=O)[C@H](Cc1ccc(O)cc1)NC(=O)CCS)C(=O)N[C@@H](CCC(N)=O)C(=O)N[C@@H](CC(N)=O)C(=O)N[C@@H](CS)C(=O)N1CCC[C@H]1C(=O)N[C@@H](CCCCN)C(=O)NCC(N)=O` [dLVToc] ([Mpa]YIQNCPKG-NH2), the Ki in assay [1] was determined as 5820 ± 1700 nM; at human OTR, 6.3 ± 3.6 nM; at human V1a receptors, 31 ± 9 nM.

The values are drawn from paper PMC6049614 (Chemical Communications (Cambridge, England), 2018).
